Data on 2 compounds can be found in patent publication US20070128586A1, “Therapeutic, prophylactic and diagnostic agents” (priority 2003, published 2007).

A value given as a limit tells only on which side of the number the result lay.

One assay deals with HBV. In words: HBV DNA in chronic Hepatitis B patients (Cobas Amplicor HBV Monitor Test). The note with it: five CHB patients; fell from >200,000 following treatment with lamivudine. It counts as in vivo, Hepatitis B virus. The procedure:
Eighteen non-cirrhotic patients with chronic Hepatitis B (CHB) and on-going viral replication (HBV DNA >200,000 genomes/mL, n=12 and 200-10,000 genomes/mL, n=6; Cobas Amplicor HBV Monitor (trademark) Test, USA) and 32 healthy control subjects were studied. TLR-2 and TLR-4 expression on CD14^+ve peripheral blood mononuclear cells (PBMC's) was measured by flow cytometry using anti-CD14 (Becton Dickinson) and anti-TLR-2 and anti-TLR-4 (eBioscience, USA) monoclonal antibodies. TLR expression was reassessed in five patients in whom HBV DNA fell from >200,000 to <200 genomes/mL following treatment with lamivudine. In vitro TLR-2 expression by PBMCs was measured in five control subjects at baseline and following stimulation for 20 h by partially purified recombinant HBV. […] TLR-2 expression normalised in each of the five lamivudine-treated CHB patients in whom HBV DNA became undetectable. In vitro expression of TLR-2 fell in a concentration-dependent manner following exposure to recombinant HBV.

The nature of assay [1]: Plasma endotoxin assay (chromogenic limulus amoebocyte lysate), cirrhotic patients. It counts as in vivo, human.
The test system of the next assay is TNF-α. In words: Serum TNF-α assay (Quantikine HS immunoassay), cirrhotic patients. Format: in vivo, human. The note with it: Child-Pugh B/C patients, n = 7; controls 1.7, no lactulose 3.1.
The subject of a further assay is sTNF RI (p55). In words: Serum sTNFR assay, sTNF RI (p55), cirrhotic patients. It counts as in vivo, human. The following applies: Child-Pugh B/C patients, n = 7; controls 1643, no lactulose 3852. On the procedure: (§1) Peripheral blood was drawn using pyrogen-free needles, syringes and containers (Becton-Dickinson, Singapore). Plasma and serum were separated in a refrigerated centrifuge at 4° C. and stored at −70° C. in pyrogen-free polyethylene cryotubes (Nunc, Denmark) until analysis within six weeks of collection. Whole blood was used for determination of TLR expression on peripheral blood monocytes. Serum sTNF RI (p55) and sTNF RII (p75) were measured using Quantikine HS Human sTNFR Immunoassays (R&D Systems Inc., Minneapolis, USA), according to the manufacturer's instructions.

For another assay, the system named is sTNF RII (p75). Kind of assay: Serum sTNFR assay, sTNF RII (p75), cirrhotic patients. It counts as in vivo, human. The note with it: Child-Pugh B/C patients, n = 7; controls 2438, no lactulose 5933. The procedure:
as §1

For another assay, the system named is TLR-2. In words: Flow cytometry for TLR-2 expression on CD14+ve peripheral blood monocytes, cirrhotic patients. Format: in vivo, human. The note with it: Child-Pugh B/C patients, n = 7; ratio of geometric mean fluorescence to mean control values. (A flow cytometer gives signals particle by particle.)
The subject of another assay is TLR-4. In words: Flow cytometry for TLR-4 expression on CD14+ve peripheral blood monocytes, cirrhotic patients. It counts as in vivo, human. The following applies: Child-Pugh B/C patients, n = 7; ratio of geometric mean fluorescence to mean control values. From the text: Isotype matched non-binding controls were used for comparison. Ten thousand CD14^+ve cells were acquired for each sample and dead cells were gated out based on their light scatter properties on FACSCaliber flow cytometer (Becton Dickinson, USA). At least two control patients were used for standardization purposes every flow cytometry session. TLR-2 and TLR-4 values were expressed as a ratio of the geometric mean fluorescence of individual study patients to mean control values for that session.

Assay [2] deals with PBMCs. In words: In vitro production of TNF-α by PBMCs stimulated with endotoxin. The following applies: Child-Pugh B/C patients, n = 7; endotoxin 10 ng/mL, 20 h; ratio stimulated to unstimulated cells. Format: cell-based, human.
For assay [3], the system named is PBMCs. In words: In vitro production of TNF-α by PBMCs stimulated with SEB. Format: cell-based, human. The following applies: Child-Pugh B/C patients, n = 7; SEB 10 ng/mL, 20 h; ratio stimulated to unstimulated cells.

As for `Nc1ccn([C@@H]2CS[C@H](CO)O2)c(=O)n1` [lamivudine], in the assay on HBV, the “HBV DNA following treatment” value is less than 200 genomes/mL.

Turning to `OC[C@H]1O[C@@H](O[C@@H]2[C@@H](CO)OC(O)(CO)[C@H]2O)[C@H](O)[C@@H](O)[C@H]1O` (mixture of isomers) [lactulose], the “Plasma endotoxin, Median” value in [1] (Child-Pugh B/C patients, n = 7, controls 25, no lactulose 49) worked out at 13 pg/mL. Moreover, the “Plasma endotoxin values compared with control subjects” value in assay [1] (subgroup of Child-Pugh B and C patients treated with lactulose) was “not significantly different from those in control subjects”. Also, the “Serum TNF-α, Median” value with TNF-α is 4.2 pg/mL. In the assay on sTNF RI (p55), the “Serum soluble TNF receptor I, Median” value came to 3878 pg/mL. In addition, the “Serum soluble TNF receptor II, Median” value in the assay with sTNF RII (p75) is listed as 5440 pg/mL. For the same compound, the “Expression of TLR-2 on CD14+ve PBMCs, Median” value with TLR-2 is on record as 1.29. Also, the “Expression of TLR-4 on CD14+ve PBMCs, Median” value with TLR-4 is 1.06. For the same compound, the “In vitro production of TNF-α by PBMCs in response to endotoxin, Median” value in the assay with PBMCs [2] is recorded as 3.1. In addition, in the assay on PBMCs [3], the “In vitro production of TNF-α by PBMCs in response to SEB, Median” value came out at 1.5.
